Values of other authors as cited in patent publication US6027728A, “Herbal skin regeneration composition and method” (priority 1998, dated 2000).

Test system: Na+,K(+)-ATPase
Conditions: not given

Structure (SMILES) | inhibition of Na+,K(+)-ATPase activity (in words)
C[C@]12C[C@@H](O)[C@@H]3C[C@@]1(O[C@@H]1O[C@H](CO)[C@@H](O)[C@H](O)[C@H]1O)[C@@]3(COC(=O)c1ccccc1)C(=O)O2 [albiflorin] | ineffective
O=C(O)c1ccccc1 [benzoic acid] | weakly inhibitory
C[C@@]12C[C@@]3(O)O[C@@H](O1)[C@]1(COC(=O)c4ccc(O)cc4)[C@H]3C[C@@]12O[C@@H]1O[C@H](CO)[C@@H](O)[C@H](O)[C@H]1O [oxypaeoniflorin] | ineffective
COc1ccc(C(C)=O)c(O)c1 [paconol] | ineffective
Oc1cc(O)c2c(c1)OC(c1ccc(O)c(O)c1)C(O)C2 (stereo not drawn) [catechin] | weakly inhibitory
C[C@@]12C[C@@]3(O)O[C@@H](O1)[C@]1(COC(=O)c4ccccc4)[C@H]3C[C@@]12O[C@@H]1O[C@H](CO)[C@@H](O)[C@H](O)[C@H]1O [paeoniflorin] | ineffective
Oc1ccccc1 [phenol] | ineffective
C[C@@]12C[C@@]3(O)O[C@@H](O1)[C@]1(COC(=O)c4ccccc4)[C@H]3C[C@@]12O[C@@H]1O[C@H](COC(=O)c2cc(O)c(O)c(O)c2)[C@@H](O)[C@H](O)[C@H]1O [galloylpaeoniflorin] | weakly inhibitory

Same assay, conditions: with respect to ATP

inhibition mode with respect to ATP | Structure (SMILES)
noncompetitive | O=C(OC[C@H]1O[C@@H](OC(=O)c2cc(O)c(O)c(O)c2)[C@H](OC(=O)c2cc(O)c(O)c(O)c2)[C@@H](OC(=O)c2cc(O)c(O)c(O)c2)[C@@H]1OC(=O)c1cc(O)c(O)c(O)c1)c1cc(O)c(O)c(O)c1 [PGG, 1,2,3,4,6-Penta-O-galloyl-beta-D-glucose]
